Article PMC10747661, “Preparation of trans-Crocetin with High Solubility, Stability, and Oral Bioavailability by Incorporation into Three Types of Cyclodextrins” (Pharmaceutics, 2023)
≈ marks a conversion by molar mass, not a printed value. Like-named read-outs stand apart in the source and are kept apart here.

Columns and labels:
[1] = Pharmacokinetics study after intragastric administration; type: in vivo; details: Sprague-Dawley, rat, plasma, po, SD rats, 20 mg/kg intragastric, n = 6
Experimental: Twenty-four SD rats were randomly divided into four groups and administered CRT/α-CD IC, CRT/HP-β-CD IC, CRT/γ-CD IC, or intact CRT. All rats were fasted for 12 h and only provided water before experiments. All samples at a dose of 20 mg/kg body weight were administered intragastrically. Blood samples (0.4 mL) were collected from the orbital venous plexus at predetermined time points (0.083, 0.167, 0.25, 0.5, 1, 2, 4, 6, 8, 12, and 24 h) into tubes containing heparin sodium. The blood samples were centrifuged immediately at 4000 rpm for 15 min; the supernatant layer of plasma was separated and stored at 4 °C for 24 h. CRT in plasma was extracted with 600 μL methanol with an internal standard of 10 μL ATRA from 200 μL plasma samples and centrifuged at 10,000 rpm for 15 min at 4 °C. The supernatant layer was transferred to a new tube, concentrated to remove solvents under the LSE-1K vacuum centrifuge concentrator (JTLIANGYOU, Changzhou, China), and redissolved in 200 μL of methanol for analysis. The concentration of CRT was determined using an HPLC (Waters HPLC system consisting of a 2695–2487 UV detector, Milford, MA, USA) using a COSMOSIL-C18 (150 mm × 4.6 mm, 5 μm) column with a detection wavelength of 424 nm. The injection volume was 20 μL, the column temperature was 35 °C, the mobile phase was methanol with water and glacial acetic acid in a ratio (v:v:v) of 92:7.7:0.3, and the flow rate was 1 mL/min. The pharmacokinetic parameters were calculated using DAS 2.0. Relative bioavailability percentage was calculated as follows:Relative bioavailability (%) = (AUC0–∞ IC/AUC0–∞ CRT) × 100 (2)

[2] = parameters: method as in PMID 21112749, PMID 21398065; details: humans, CRT or saffron tea orally, cited from earlier work
[3] = Dissolution test (USP paddle method); type: physicochemical; details: phosphate buffer pH 6.8, 900 mL, 100 rpm, 37 °C
Experimental: The dissolution of CRT, PMs, and ICs was evaluated using the USP (version 26) paddle method with a dissolution tester (Tianjin University Electronics Co., Ltd., Tianjin, China). The dissolution medium was phosphate buffer (pH 6.8, 900 mL); the paddles were rotated at 100 rpm at 37.0 ± 0.5 °C. A sample volume of 5 mL was withdrawn from the dissolution medium at predetermined sampling points, filtered using a […] microporous filter membrane, and analyzed via HPLC. All dissolution tests were performed in triplicate.

Solubility determination = type: physicochemical; details: thermodynamic from solid, 25 °C
Experimental: Drug solubility at 25 ± 0.5 °C was determined in water and phosphate buffer (pH 6.8). Excesses of CRT and each IC were added to each fluid and placed in a thermostatic water bath in the dark at 25 ± 0.5 °C with a constant shaking rate of 100 rpm for 72 h. After the equilibrium state was reached, the solutions were centrifuged for 15 min, and 2 mL of the supernatant was diluted with an appropriate amount of methanol. Drug concentrations were determined using HPLC.

[4] = Effect of storage on stability (heat, light, moisture); type: physicochemical; details: 60 ± 0.5 °C, 10 days
Experimental: All samples were sealed in transparent glass bottles and divided into three groups, each containing CRT/α-CD IC (500 mg), CRT/HP-β-CD IC (500 mg), CRT/γ-CD IC (500 mg), and intact CRT (500 mg). The first group was stored at 60 ± 0.5 °C for 10 days. The second group was stored at 25 ± 0.5 °C with a light intensity of 4500 ± 500 lx for 10 days. The third group was stored at 25 ± 0.5 °C with 75% relative humidity for 10 days. The CRT contents were sampled and measured on days 0, 5, and 10. Each test was repeated at least three times.

[5] = parameters: method as in PMID 16131146; details: mice, oral, cited from earlier work

AUC(0-inf) [1]: 2660 ± 196 ng·h/mL
Cmax [1]: 545 ± 23 ng/mL
Tmax [1]: 2 h
half-life [1]: 2.06 ± 0.237 h
AUC(0-t) ([1]; read-out: AUC0–12): 2410 ± 163 ng·h/mL
MRT last ([1]; read-out: MRT0–12): 3.03 ± 0.082 h
cumulative dissolution rate at 180 min [3]: 13%
solubility at 72 h (Solubility determination; phosphate buffer, pH 6.86, aqueous buffer, buffer salt, read-out: Solubility of CRT in pH6.86 Buffer Salt): 1.84 ± 0.11 µg/mL
solubility at 72 h (Solubility determination; water, read-out: Solubility of CRT in H2O): 1.23 ± 0.07 µg/mL (≈ 3.75 µM)
relative content (retention) of CRT after thermal treatment [4]: 80%
Compound: CC(/C=C/C=C(\C)C(=O)O)=C\C=C\C=C(C)\C=C\C=C(/C)C(=O)O [CRT, Crocetin]
concentrations of CRT in the blood ([2]; based on the dose): 100.9 to 279.7 ng/mL
Tmax [2]: approximately 4.6 h
time of highest plasma concentration ([5]; dose of 117.2 mg/mL): approximately 2 h
highest plasma concentration of CRT [5]: 1249.3 ± 788.1 ng/mL
